Test system: HeLa cells
Experiment: Confocal microscopy of peptide uptake and localization
Format: cell-based
Conditions: 1.0 μM peptide, 1 h, serum-free DMEM with 25 mM HEPES pH 7.3, fixed

Uptake of peptide at 4 °C, fixed cells (confocal) | Substance
still able to enter the cells | AcK(5-Fam)AKKSRRC(Ger)VLL [compound 4]
substantial uptake of the peptide | AcK(5-Fam)C(Acm)KKSRRC(Ger)-NH2 [2a]

Reference: paper PMC2774768 (Journal of the American Chemical Society, 2009)
